Measurements published in PubChem BioAssay AID1963983 (Molecular Pharmacology Branch, DTP, NCI, 2024).
Several values for one entry are separate records, joined by “and”; a condition that tells them apart may be missing. Equal entries are not always repeated.

Tested on: 186277-243-T-J2-PDC multi-cell spheroid viability
Experiment: Anticancer human tumor 186277-243-T-J2-PDC patient-derived colon adenocarcinoma cell line growth inhibition [PI3K]
Settings: for viability, T/C: stronger effect = lower value
From the text: Combinatorial screen of targeted agents with the PI3K inhibitors inavolisib, alpelisib, duvelisib, and copanlisib in multi-cell type tumor spheroids
A high-throughput screen of multi-cell type tumor spheroids was designed to identify active combinations of targeted small molecules and PI3K pathway inhibitors. Complex spheroids include a stromal component modeled by human endothelial cells (HUVEC) and fibroblasts modeled by human mesenchymal stem cells (MSCs). The concentration ranges selected for each drug and investigational agent were based upon clinically achievable concentrations if the clinical Cmax of the agent was known.
Compounds. The drugs and investigational agents: inavolisib (NSC800729), alpelisib (NSC765974), duvelisib (NSC772469), copanlisib (NSC816437), ipatasertib (NSC767898), afuresertib (NSC778305), talazoparib (NSC767125), sapanisertib (NSC764658), selumetinib (NSC741078), tovorafenib (DAY101, NSC766906), vemurafenib (NSC761431), ravoxertinib (NSC781343), sotorasib (NSC818433), MRTX1133 (NSC 836407), abemaciclib (NSC 768073), palbociclib (NSC758247), venetoclax (NSC 766270), SY5609 (NSC837396), enzalutamide (NSC755605), and darolutamide (NSC825331), were obtained from the National Cancer Institute (NCI) Developmental Therapeutics Program Chemical Repository. The FDA-approved anticancer drug set is available from the NCI Developmental Therapeutics Program. […] The stock solutions were prepared in dimethyl sulfoxide (DMSO, Sigma-Aldrich, St. Louis, MO, cat. D2650) at 800-fold the tested concentration and stored at -70 degrees C prior to their use. All drugs and investigational agents were tested over a range starting from a high concentration at or near the clinical Cmax and decreasing in half-log increments. If the clinical Cmax for an agent had not been determined, the highest concentration tested was 10 microM.
Cell Culture. All cells were maintained in an incubator at 37 degrees C and 5% CO2 with 95% humidity. The PDC lines were cultured according to standard operating procedures established by the NCI PDMR (https://pdmr.cancer.gov/sops/default.htm). All PDCs were thawed and cultured in Matrigel-coated flasks prepared with a working solution of 1X Ham's F-12 nutrient mix, without supplementation (Invitrogen, Waltham, MA, cat. 11765054), 100 U/mL penicillin-streptomycin (Invitrogen, cat. 15140122), and 2.5% Matrigel (Corning Inc., Corning, NY, cat. 354248) for the first three passages. The 354836-022-R-J1-PDC, 475296-252-R-J1-PDC, and 997726-040-R-J2-PDC lines were cultured in 6A media, which includes advanced DMEM/F-12 (Thermo Fisher Scientific, cat. 12634028), 10 mM HEPES (Thermo Fisher Scientific, cat. 15630080), 1X GlutaMAX supplement (Thermo Fisher Scientific, cat. 35050061), 0.1 mg/mL primocin (InvivoGen, San Diego, CA, cat. ant-pm-2), 10% defined fetal bovine serum, heat inactivated (HyClone Laboratories Inc., Logan, UT, cat. SH30070.03HI), 50% L-WRN conditioned media (ATCC, cat. CRL-3276), 1.25 mM N-Acetyl-L-cysteine (Sigma-Aldrich, cat. A9165), 10 mM nicotinamide (Sigma-Aldrich, cat. N0636), 1X B-27 supplement (Thermo Fisher Scientific, cat. 17504044), 1X N-2 supplement (Thermo Fisher Scientific, cat. 17502048), and 10 microM Y-27632 dihydrochloride (Tocris Bioscience, Bristol, United Kingdom, cat. 1254). The 624824-186-R-J2-PDC line was cultured in 6C/Colon 1B media, which includes all 6A media components plus 50 ng/mL human EGF recombinant protein (Thermo Fisher Scientific, cat. PHG0311). […]

[1] = curve of first compound, second compound 0.0316 µM
[2] = curve of first compound, second compound 0.1 µM
[3] = curve of first compound, second compound 0.316 µM
[4] = curve of first compound, second compound 1 µM
[5] = curve of first compound, second compound 3.16 µM
[6] = curve of first compound, second compound 10 µM
[7] = second compound 0.0316 µM, first compound 0.0316 µM
[8] = second compound 0.0316 µM, first compound 0.1 µM
[9] = second compound 0.0316 µM, first compound 0.316 µM
[10] = second compound 0.0316 µM, first compound 1 µM
[11] = second compound 0.1 µM, first compound 0.0316 µM
[12] = second compound 0.1 µM, first compound 0.1 µM
[13] = second compound 0.1 µM, first compound 0.316 µM
[14] = second compound 0.1 µM, first compound 1 µM
[15] = second compound 0.316 µM, first compound 0.0316 µM
[16] = second compound 0.316 µM, first compound 0.1 µM
[17] = second compound 0.316 µM, first compound 0.316 µM
[18] = second compound 0.316 µM, first compound 1 µM
[19] = second compound 1 µM, first compound 0.0316 µM
[20] = second compound 1 µM, first compound 0.1 µM
[21] = second compound 1 µM, first compound 0.316 µM
[22] = second compound 1 µM, first compound 1 µM
[23] = second compound 3.16 µM, first compound 0.0316 µM
[24] = second compound 3.16 µM, first compound 0.1 µM
[25] = second compound 3.16 µM, first compound 0.316 µM
[26] = second compound 3.16 µM, first compound 1 µM
[27] = second compound 10 µM, first compound 0.0316 µM
[28] = second compound 10 µM, first compound 0.1 µM
[29] = second compound 10 µM, first compound 0.316 µM
[30] = second compound 10 µM, first compound 1 µM
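Further: spheroids exposed to compounds for seven days before viability reading.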
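Wherever viability, T/C is given: 100% = DMSO vehicle control viability.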

SMILES: C[C@@H](NC(=O)c1ncnc(N)c1Cl)c1ncc(C(=O)Nc2cc(C(F)(F)F)c(Cl)cn2)s1 + CC(Nc1ncnc2nc[nH]c12)c1cc2cccc(Cl)c2c(=O)n1-c1ccccc1
- IC50 [1]: > 10 µM
- IC50 [2]: > 10 µM
- IC50 [3]: > 10 µM
- IC50 [4]: > 10 µM
- IC50 [5]: > 10 µM
- IC50 [6]: 6.16 µM
- viability, T/C [7]: 92.6%
- viability, T/C [8]: 89.9%
- viability, T/C [9]: 93.7%
- viability, T/C [10]: 83.4%
- viability, T/C (second compound 0.0316 µM, first compound 3.16 µM): 105%
- viability, T/C (second compound 0.0316 µM, first compound 10 µM): 79.1%
- viability, T/C [11]: 84.3%
- viability, T/C [12]: 87.2%
- viability, T/C [13]: 90.1%
- viability, T/C [14]: 105%
- viability, T/C (second compound 0.1 µM, first compound 3.16 µM): 108%
- viability, T/C (second compound 0.1 µM, first compound 10 µM): 88%
- viability, T/C [15]: 94.5%
- viability, T/C [16]: 107%
- viability, T/C [17]: 94.3%
- viability, T/C [18]: 95%
- viability, T/C (second compound 0.316 µM, first compound 3.16 µM): 105%
- viability, T/C (second compound 0.316 µM, first compound 10 µM): 80.5%
- viability, T/C [19]: 88.1%
- viability, T/C [20]: 105%
- viability, T/C [21]: 96.7%
- viability, T/C [22]: 91%
- viability, T/C (second compound 1 µM, first compound 3.16 µM): 102%
- viability, T/C (second compound 1 µM, first compound 10 µM): 61.9%
- viability, T/C [23]: 107%
- viability, T/C [24]: 97.2%
- viability, T/C [25]: 104%
- viability, T/C [26]: 99.3%
- viability, T/C (second compound 3.16 µM, first compound 3.16 µM): 93.3%
- viability, T/C (second compound 3.16 µM, first compound 10 µM): 66.4%
- viability, T/C [27]: 84.8%
- viability, T/C [28]: 91.7%
- viability, T/C [29]: 107%
- viability, T/C [30]: 95.5%
- viability, T/C (second compound 10 µM, first compound 3.16 µM): 72.8%
- viability, T/C (second compound 10 µM, first compound 10 µM): 33.5%

SMILES: COc1c(OCCCN2CCOCC2)ccc2c3n(c(=NC(=O)c4cnc(N)nc4)nc12)CCN3
- viability, T/C (compound 0.00316 µM): 98.7% [middle of 8 runs]
- viability, T/C (compound 0.01 µM): 97.8% [middle of 8 runs]
- viability, T/C (compound 0.0316 µM): 73.4% [middle of 8 runs]
- viability, T/C (compound 0.1 µM): 16.7% [middle of 8 runs]
- viability, T/C (compound 0.316 µM): 6.29% [middle of 8 runs]
- viability, T/C (compound 1 µM): 2.87% [middle of 8 runs]
- IC50 (compound alone, run of 05/09/2023): 51.4 nM [middle of 8 runs]

SMILES: CNC(=O)c1ccc(N2C(=S)N(c3ccc(C#N)c(C(F)(F)F)c3)C(=O)C2(C)C)cc1F
- viability, T/C (compound 0.0316 µM): 100% [middle of 4 runs]
- viability, T/C (compound 0.1 µM): 93.1% [middle of 4 runs]
- viability, T/C (compound 0.316 µM): 100% [middle of 4 runs]
- viability, T/C (compound 1 µM): 93% [middle of 4 runs]
- viability, T/C (compound 3.16 µM): 101% and 104% (2×) and 94.4%
- viability, T/C (compound 10 µM): 104% [middle of 4 runs]
- IC50 (curve of compound): > 10 µM

SMILES: CCN1CCN(Cc2ccc(Nc3ncc(F)c(-c4cc(F)c5nc(C)n(C(C)C)c5c4)n3)nc2)CC1 + Cc1nc(NC(=O)N2CCCC2C(N)=O)sc1-c1ccnc(C(C)(C)C(F)(F)F)c1
- IC50 [1]: > 1 µM
- IC50 [2]: > 1 µM
- IC50 [3]: > 1 µM
- IC50 [4]: > 1 µM
- IC50 [5]: < 0.00316 µM
- IC50 [6]: < 0.00316 µM
- viability, T/C (second compound 0.0316 µM, first compound 0.00316 µM): 96.7%
- viability, T/C (second compound 0.0316 µM, first compound 0.01 µM): 116%
- viability, T/C [7]: 107%
- viability, T/C [8]: 139%
- viability, T/C [9]: 147%
- viability, T/C [10]: 137%
- viability, T/C (second compound 0.1 µM, first compound 0.00316 µM): 97.4%
- viability, T/C (second compound 0.1 µM, first compound 0.01 µM): 93%
- viability, T/C [11]: 105%
- viability, T/C [12]: 127%
- viability, T/C [13]: 145%
- viability, T/C [14]: 124%
- viability, T/C (second compound 0.316 µM, first compound 0.00316 µM): 97.9%
- viability, T/C (second compound 0.316 µM, first compound 0.01 µM): 114%
- viability, T/C [15]: 104%
- viability, T/C [16]: 103%
- viability, T/C [17]: 116%
- viability, T/C [18]: 92.5%
- viability, T/C (second compound 1 µM, first compound 0.00316 µM): 101%
- viability, T/C (second compound 1 µM, first compound 0.01 µM): 90.2%
- viability, T/C [19]: 77.9%
- viability, T/C [20]: 78.1%
- viability, T/C [21]: 74%
- viability, T/C [22]: 62.8%
- viability, T/C (second compound 3.16 µM, first compound 0.00316 µM): 49.8%
- viability, T/C (second compound 3.16 µM, first compound 0.01 µM): 47.5%
- viability, T/C [23]: 42.1%
- viability, T/C [24]: 37%
- viability, T/C [25]: 41.4%
- viability, T/C [26]: 28.6%
- viability, T/C (second compound 10 µM, first compound 0.00316 µM): 15.8%
- viability, T/C (second compound 10 µM, first compound 0.01 µM): 14.2%
- viability, T/C [27]: 10.7%
- viability, T/C [28]: 9%
- viability, T/C [29]: 12.5%
- viability, T/C [30]: 12%
